Test results reported in PMC5123592 (Nature chemistry, 2016).

Legend:
ZMPSTE24 [1] = target: T1, ZMPSTE24 (Homo sapiens, UniProt O75844); experiment: native mass spectrometry; format: binding; details: 15 μM drug, equimolar ZMPSTE24, C8E4
T1 sequence (O75844 1-475): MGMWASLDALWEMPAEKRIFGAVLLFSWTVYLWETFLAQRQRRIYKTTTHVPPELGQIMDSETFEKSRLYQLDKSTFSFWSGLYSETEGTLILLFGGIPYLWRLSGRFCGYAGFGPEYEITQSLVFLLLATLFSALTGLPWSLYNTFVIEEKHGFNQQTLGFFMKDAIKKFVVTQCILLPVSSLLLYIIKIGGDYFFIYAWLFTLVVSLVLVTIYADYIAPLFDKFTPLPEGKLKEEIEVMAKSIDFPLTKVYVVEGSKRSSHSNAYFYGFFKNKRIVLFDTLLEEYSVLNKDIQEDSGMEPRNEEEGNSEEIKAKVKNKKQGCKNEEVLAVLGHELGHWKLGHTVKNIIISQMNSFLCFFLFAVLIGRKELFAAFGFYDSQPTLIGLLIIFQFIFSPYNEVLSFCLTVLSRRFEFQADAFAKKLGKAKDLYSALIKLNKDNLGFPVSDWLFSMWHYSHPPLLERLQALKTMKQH

ZMPSTE24 [2] = target: T1, ZMPSTE24; experiment: native mass spectrometry titration; format: binding

Row | SMILES | binding observed at 15 μM (ZMPSTE24 [1]) | Kd (ZMPSTE24 [2]) [µM]
1 | CC(C)CN(C[C@@H](O)[C@H](Cc1ccccc1)NC(=O)O[C@H]1CCOC1)S(=O)(=O)c1ccc(N)cc1 [amprenavir] | binding of amprenavir and ritonavir were observed, albeit in lower amounts | 
2 | Cc1cccc(C)c1OCC(=O)N[C@@H](Cc1ccccc1)[C@@H](O)C[C@H](Cc1ccccc1)NC(=O)[C@H](C(C)C)N1CCCNC1=O [lopinavir] |  | 25 ± 1.2
